Literature values in US20180273582A1, “SMALL MOLECULE AFFINITY MEMBRANE PURIFICATION SYSTEMS AND USES THEREOF” (UNIVERSITY OF NOTRE DAME, priority 2015, published 2018).

Target: nucleotide binding site (NBS) of antibody
Settings: antibody NBS region; from reference [43]; read-out: Kd (binding affinity to the conserved NBS region)

- Kd: 1 to 8 µM
SMILES: O=C(O)CCCc1c[nH]c2ccccc12 [IBA, indole-3-butyric acid]
